The results in this text go back to patent US11345666B2, “Phenyl and pyridinyl substituted imidazoles as modulators of RORγT” (Janssen Pharmaceutica NV, priority 2018, dated 2022).

For experiment [1], the target named is human RORγt ligand binding domain (RORγt LBD) (Homo sapiens (Human), UniProt P51449). Put plainly: RORγt ThermoFluor assay. In outline: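 Thermal shift of His-tagged human RORγt LBD (0.065 mg/mL) with 60 μM 1,8-ANS in 100 mM Hepes pH 7.0, 10 mM NaCl, 2.5 mM GSH, 0.002% Tween-20, heated at 1° C./min. Compounds in 1:2 series from a 10 mM DMSO stock; KD estimated from ΔTm using protein unfolding thermodynamics.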
(In general: DSF heats the sample and reads unfolding from a dye or from intrinsic fluorescence.)

Experiment [2] concerns the target full-length human RORγt (Homo sapiens (Human), UniProt P51449). Put plainly: RORγt (full-length human) reporter assay, conditions A or B. As to conditions: for IC50: HEK293T cells, read-out: RORγt (FL) Reporter Assay A or B, IC50; for inhibition at 6 µM: read-out: RORγt (FL) Reporter Assay A or B, % inhibition @ 6 μM, 6 μM compound concentration; for inhibition at 3 µM: 3 μM compound concentration (*); for inhibition at 3 µM / inhibition at 0.22 µM: read-out: RORγt (FL) Reporter Assay A or B, % inhibition; for inhibition at 0.22 µM: 0.22 μM compound concentration (******). It is filed as cell-based. In outline: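 HEK293T cells transiently co-transfected (PEI) with GAL4-DBD–RORγt, GAL4-firefly luciferase and CMV-Renilla reporters; condition A 35,000 cells/well, 170.5 ng DNA/well; condition B 8750 cells/well, 42.6 ng DNA/well.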
(Reporter assays use an easily measured gene product as a stand-in for the process of interest.)

Chain of full-length human RORγt (P51449 other isoform, or with tags, fused parts or gaps): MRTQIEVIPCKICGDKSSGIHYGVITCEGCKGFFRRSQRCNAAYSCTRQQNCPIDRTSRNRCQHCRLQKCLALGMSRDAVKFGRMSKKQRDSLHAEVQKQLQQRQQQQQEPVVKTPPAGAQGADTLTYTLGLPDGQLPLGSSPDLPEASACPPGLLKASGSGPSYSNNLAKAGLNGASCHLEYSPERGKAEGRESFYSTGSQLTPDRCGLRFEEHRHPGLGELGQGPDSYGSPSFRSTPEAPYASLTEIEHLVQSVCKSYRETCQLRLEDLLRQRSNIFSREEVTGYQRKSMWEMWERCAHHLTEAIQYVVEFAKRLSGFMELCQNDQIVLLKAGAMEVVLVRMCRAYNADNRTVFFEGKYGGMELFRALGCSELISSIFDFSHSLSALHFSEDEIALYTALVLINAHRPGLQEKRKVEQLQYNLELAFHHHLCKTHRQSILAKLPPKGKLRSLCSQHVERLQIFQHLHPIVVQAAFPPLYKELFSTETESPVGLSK
Chain of human RORγt ligand binding domain (RORγt LBD) (P51449 other isoform, or with tags, fused parts or gaps): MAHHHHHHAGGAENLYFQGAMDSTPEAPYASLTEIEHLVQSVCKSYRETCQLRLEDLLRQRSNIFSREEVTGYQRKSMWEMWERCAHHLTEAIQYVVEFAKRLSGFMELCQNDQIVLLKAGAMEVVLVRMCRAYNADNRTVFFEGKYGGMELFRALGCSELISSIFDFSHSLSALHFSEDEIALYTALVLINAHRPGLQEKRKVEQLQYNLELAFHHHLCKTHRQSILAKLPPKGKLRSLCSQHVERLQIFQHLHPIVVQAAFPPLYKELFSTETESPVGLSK

Take `CCc1nc(C(=O)NC[C@H]2CC[C@H](S(C)(=O)=O)CC2)c(C#N)n1-c1ncc(CCC(F)(F)F)cc1OC` [Example 119, 5-Cyano-2-ethyl-1-(3-methoxy-5-(3,3,3-trifluoropropyl)pyridin-2-yl)-N-(((1r,4r)-4-(methylsulfonyl)cyclohexyl)methyl)-1H-imidazole-4-carboxamide]: the Kd in experiment [1] amounted to 0.19 µM. In addition, in experiment [2], the IC50 is 0.72 µM and the inhibition at 6 µM stood at 96%.

Turning to `[2H]C([2H])([2H])Oc1cc(CCC(F)(F)F)ccc1-n1c(CC)nc(C(=O)NC[C@]2(O)CC[C@@H](S(C)(=O)=O)CC2)c1C#N` [Example 30, 5-Cyano-2-ethyl-N-(((1s,4s)-1-hydroxy-4-(methylsulfonyl)cyclohexyl)methyl)-1-(2-(methoxy-d3)-4-(3,3,3-trifluoropropyl)phenyl)-1H-imidazole-4-carboxamide], in experiment [1], the Kd was 0.044 µM. For the same compound, in experiment [2], the IC50 came to 0.32 µM and the inhibition at 6 µM was found to be 96%.

In experiment [1], `CCc1nc(C(=O)NC[C@]2(O)CC[C@@H](S(C)(=O)=O)CC2)c(Cl)n1-c1ncc(C[C@@H](C)C(F)(F)F)cc1OC(F)F` (single isomer, unassigned) [Example 79, 5-Chloro-1-(3-(difluoromethoxy)-5-((R*)-3,3,3-trifluoro-2-methylpropyl)pyridin-2-yl)-2-ethyl-N-(((1s,4S)-1-hydroxy-4-(methylsulfonyl)cyclohexyl)methyl)-1H-imidazole-4-carboxamide] had a Kd of 0.026 µM. Also, in experiment [2], the inhibition at 3 µM came out at 84% and the IC50 stood at 0.22 µM.

`CCc1nc(C(=O)NC[C@H]2CC[C@H](S(C)(=O)=O)CC2)c(Cl)n1-c1c(F)cc(C[C@H](C)C(F)(F)F)cc1F` (single isomer, unassigned) [Example 86, 5-Chloro-1-(2,6-difluoro-4-((S*)-3,3,3-trifluoro-2-methylpropyl)phenyl)-2-ethyl-N-(((1r,4S)-4-(methylsulfonyl)cyclohexyl)methyl)-1H-imidazole-4-carboxamide] displayed a Kd in experiment [1] of 0.0053 µM. Also, the IC50 in experiment [2] turned out to be 0.023 µM. The inhibition at 0.67 µM in experiment [2] (read-out: RORγt (FL) Reporter Assay A or B, % inhibition, 0.67 μM compound concentration (****)) is 68%.

As for `CCc1nc(C(=O)NC[C@]2(O)CC[C@@H](S(C)(=O)=O)CC2)c(Cl)n1-c1ncc(C[C@H](C)C(F)(F)F)cc1OC(F)F` (single isomer, unassigned) [Example 71, 5-Chloro-1-(3-(difluoromethoxy)-5-((S*)-3,3,3-trifluoro-2-methylpropyl)pyridin-2-yl)-2-ethyl-N-(((1s,4R)-1-hydroxy-4-(methylsulfonyl)cyclohexyl)methyl)-1H-imidazole-4-carboxamide], the Kd in experiment [1] worked out at 0.028 µM. Also, in experiment [2], the inhibition at 3 µM came out at 90% and the IC50 worked out at 0.16 µM.

`CCc1nc(C(=O)NC[C@H]2CC[C@H](S(C)(=O)=O)CC2)c(Cl)n1-c1ccc(CC(C)(C)C(F)(F)F)c(OC)c1` [Example 42, 5-Chloro-2-ethyl-1-(3-methoxy-4-(3,3,3-trifluoro-2,2-dimethylpropyl)phenyl)-N-(((1r,4r)-4-(methylsulfonyl)cyclohexyl)methyl)-1H-imidazole-4-carboxamide]: the Kd in experiment [1] amounted to 0.0011 µM. In experiment [2], the inhibition at 0.22 µM is 66% and the IC50 came out at 0.0062 µM.

`CCc1nc(C(=O)NC[C@@]2(O)CC[C@H](S(C)(=O)=O)C[C@@H]2O)c(Cl)n1-c1ncc(CC(C(F)(F)F)C(F)(F)F)cc1OC(F)F` (stereo in doubt) [Example 66, 5-Chloro-1-(3-(difluoromethoxy)-5-(3,3,3-trifluoro-2-(trifluoromethyl)propyl)pyridin-2-yl)-N-(((1S*,2S*,4S*)-1,2-dihydroxy-4-(methylsulfonyl)cyclohexyl)methyl)-2-ethyl-1H-imidazole-4-carboxamide] yielded a Kd in experiment [1] of 0.073 µM. Also, in experiment [2], the inhibition at 3 µM was 70% and the IC50 was 0.79 µM.

For the compound `Cc1nc(C(=O)NC[C@H]2CC[C@H](S(C)(=O)=O)CC2)c(Cl)n1-c1ncc(CC(C)(C)C(F)(F)F)cc1OC(F)F` [Example 133, 5-Chloro-1-(3-(difluoromethoxy)-5-(3,3,3-trifluoro-2,2-dimethylpropyl)pyridin-2-yl)-2-methyl-N-(((1r,4r)-4-(methylsulfonyl)cyclohexyl)methyl)-1H-imidazole-4-carboxamide], in experiment [1], the Kd is 0.0095 µM. In experiment [2], the inhibition at 3 µM was 72% and the IC50 is 0.037 µM.

`CCc1nc(C(=O)NC[C@]2(O)CC[C@@H](S(C)(=O)=O)CC2)c(C(N)=O)n1-c1ccc(CCC(F)(F)F)cc1F` [Example 96, 2-Ethyl-1-(2-fluoro-4-(3,3,3-trifluoropropyl)phenyl)-N-(((1s,4s)-1-hydroxy-4-(methylsulfonyl)cyclohexyl)methyl)-1H-imidazole-4,5-dicarboxamide]: in experiment [1], binding was put at a Kd of 0.45 µM. Also, in experiment [2], the IC50 worked out at 1.4 µM and the inhibition at 6 µM is 75%.

In the case of `Cc1nc(C(=O)NC[C@H]2CC[C@H](S(C)(=O)=O)CC2)c(C#N)n1-c1ccc(CC(C)(C)C(F)(F)F)cc1OC(F)F` [Example 53, 5-Cyano-1-(2-(difluoromethoxy)-4-(3,3,3-trifluoro-2,2-dimethylpropyl)phenyl)-2-methyl-N-(((1r,4r)-4-(methylsulfonyl)cyclohexyl)methyl)-1H-imidazole-4-carboxamide], binding in experiment [1] was put at a Kd of 0.0025 µM. For the same compound, in experiment [2], the inhibition at 3 µM came out at 84% and the IC50 turned out to be 0.011 µM.

For `CCc1nc(C(=O)NC[C@]2(C#N)CC[C@@H](S(C)(=O)=O)CC2)c(C#N)n1-c1ncc(CC(C)(C)C(F)(F)F)cc1OC` [Example 124, 5-Cyano-N-(((1s*,4s*)-1-cyano-4-(methylsulfonyl)cyclohexyl)methyl)-2-ethyl-1-(3-methoxy-5-(3,3,3-trifluoro-2,2-dimethylpropyl)pyridin-2-yl)-1H-imidazole-4-carboxamide], the Kd in experiment [1] came out at 0.037 µM. Besides, in experiment [2], the IC50 came to 0.084 µM and the inhibition at 6 µM amounted to 105%.

As to `COc1cc(CC(C)(C)C(F)(F)F)ccc1-n1cc(C(=O)NC[C@H]2CC[C@H](S(C)(=O)=O)CC2)nc1C` [Example 129, 1-(2-Methoxy-4-(3,3,3-trifluoro-2,2-dimethylpropyl)phenyl)-2-methyl-N-(((1r,4r)-4-(methylsulfonyl)cyclohexyl)methyl)-1H-imidazole-4-carboxamide], in experiment [1], the Kd is 0.045 µM. Besides, in experiment [2], the inhibition at 0.22 µM is 47% and the IC50 was found to be 0.13 µM.

Compound `CCc1nc(C(=O)NC[C@]2(O)CC[C@@H](S(C)(=O)=O)CC2)cn1-c1c(F)cc(CC(C)C)cc1F` [Example 81, 1-(2,6-Difluoro-4-isobutylphenyl)-2-ethyl-N-(((1s,4s)-1-hydroxy-4-(methylsulfonyl)cyclohexyl)methyl)-1H-imidazole-4-carboxamide] registered a Kd in experiment [1] of 0.26 µM. Also, in experiment [2], the IC50 was 1.2 µM and the inhibition at 6 µM amounted to 27%.

The compound `CCc1cc(CC(C)(C)C(F)(F)F)cnc1-n1c(CC)nc(C(=O)NC[C@H]2CC[C@H](S(C)(=O)=O)CC2)c1Cl` [Example 75, 5-Chloro-2-ethyl-1-(3-ethyl-5-(3,3,3-trifluoro-2,2-dimethylpropyl)pyridin-2-yl)-N-(((1r,4r)-4-(methylsulfonyl)cyclohexyl)methyl)-1H-imidazole-4-carboxamide] came in with a Kd in experiment [1] of 0.0083 µM. In addition, in experiment [2], the inhibition at 3 µM turned out to be 110% and the IC50 worked out at 0.059 µM.

For the compound `CCc1nc(C(=O)NC[C@H]2CC[C@H](S(C)(=O)=O)CC2)c(C#N)n1-c1ccc(CCC(F)(F)F)cc1OC` [Example 21, 5-Cyano-2-ethyl-1-(2-methoxy-4-(3,3,3-trifluoropropyl)phenyl)-N-(((1r,4r)-4-(methylsulfonyl)cyclohexyl)methyl)-1H-imidazole-4-carboxamide], the Kd in experiment [1] stood at 0.014 µM. Moreover, in experiment [2], the IC50 turned out to be 0.094 µM and the inhibition at 6 µM was determined as 101%.

`CCc1nc(C(=O)NC[C@H]2CC[C@H](S(C)(=O)=O)CC2)c(Cl)n1-c1ccc(CC(C(F)(F)F)C(F)(F)F)cc1F` [Example 99, 5-Chloro-2-ethyl-1-(2-fluoro-4-(3,3,3-trifluoro-2-(trifluoromethyl)propyl)phenyl)-N-(((1r,4r)-4-(methylsulfonyl)cyclohexyl)methyl)-1H-imidazole-4-carboxamide] displayed a Kd in experiment [1] of 0.004 µM. Further, in experiment [2], the inhibition at 0.22 µM is 99% and the IC50 was 0.016 µM.

Compound `Cc1nc(C(=O)NC[C@H]2CC[C@H](S(C)(=O)=O)CC2)cn1-c1ccc(CC(C)(C)C(F)(F)F)cc1OC(F)F` [Example 131, 1-(2-(Difluoromethoxy)-4-(3,3,3-trifluoro-2,2-dimethylpropyl)phenyl)-2-methyl-N-(((1r,4r)-4-(methylsulfonyl)cyclohexyl)methyl)-1H-imidazole-4-carboxamide] gave a Kd in experiment [1] of 0.097 µM. Further, in experiment [2], the inhibition at 3 µM was 73% and the IC50 is 0.47 µM.

One may read the Kd as a measure of binding affinity in units of concentration. A high value points to lower affinity. Broadly, the IC50 is the midpoint of a concentration-inhibition curve.
